Measurements published in article PMC6491818, “Novel 4-Acrylamido-Quinoline Derivatives as Potent PI3K/mTOR Dual Inhibitors: The Design, Synthesis, and in vitro and in vivo Biological Evaluation” (Frontiers in Chemistry, 2019).

What was measured:
[1] = system: prostate cancer PC3 cell line; experiment: Anti-proliferative SRB assay, PC3; type: cell-based; settings: PC3 cells, 72 h exposure
Protocol: (§1) The anti-proliferative activity of compounds was evaluated by sulforhodamin B (SRB) assay. After being cultured for 10 h, cells in 96-well plates were subjected to 72 h-exposure to serially diluted compound solutions. Cells were washed with PBS and fixed with trichloroacetic acid (10%, W/V) at 4°C for 1 h. Then, cells were successively washed with PBS, stained for 0.5 h with SRB (0.4%, dissolved in 1% acetic acid), and washed by 1% acetic acid for 5 times. Protein-bound dye was extracted with unbuffered Tris base (10 mmol). After calculating the percent inhibition from absorbance, measured at 515 nm with a multiscan spectrum (Thermo Electron Co., Vantaa, Finland), the curves were fitted in Graphpad Prism 5 to give GI50 values.

PI3Kα = PI3Kα (Homo sapiens, UniProt P42336); experiment: PI3Kα enzymatic assay (Kinase-Glo Luminescent Kinase assay); type: biochemical
Chain of PI3Kα (P42336 whole entry): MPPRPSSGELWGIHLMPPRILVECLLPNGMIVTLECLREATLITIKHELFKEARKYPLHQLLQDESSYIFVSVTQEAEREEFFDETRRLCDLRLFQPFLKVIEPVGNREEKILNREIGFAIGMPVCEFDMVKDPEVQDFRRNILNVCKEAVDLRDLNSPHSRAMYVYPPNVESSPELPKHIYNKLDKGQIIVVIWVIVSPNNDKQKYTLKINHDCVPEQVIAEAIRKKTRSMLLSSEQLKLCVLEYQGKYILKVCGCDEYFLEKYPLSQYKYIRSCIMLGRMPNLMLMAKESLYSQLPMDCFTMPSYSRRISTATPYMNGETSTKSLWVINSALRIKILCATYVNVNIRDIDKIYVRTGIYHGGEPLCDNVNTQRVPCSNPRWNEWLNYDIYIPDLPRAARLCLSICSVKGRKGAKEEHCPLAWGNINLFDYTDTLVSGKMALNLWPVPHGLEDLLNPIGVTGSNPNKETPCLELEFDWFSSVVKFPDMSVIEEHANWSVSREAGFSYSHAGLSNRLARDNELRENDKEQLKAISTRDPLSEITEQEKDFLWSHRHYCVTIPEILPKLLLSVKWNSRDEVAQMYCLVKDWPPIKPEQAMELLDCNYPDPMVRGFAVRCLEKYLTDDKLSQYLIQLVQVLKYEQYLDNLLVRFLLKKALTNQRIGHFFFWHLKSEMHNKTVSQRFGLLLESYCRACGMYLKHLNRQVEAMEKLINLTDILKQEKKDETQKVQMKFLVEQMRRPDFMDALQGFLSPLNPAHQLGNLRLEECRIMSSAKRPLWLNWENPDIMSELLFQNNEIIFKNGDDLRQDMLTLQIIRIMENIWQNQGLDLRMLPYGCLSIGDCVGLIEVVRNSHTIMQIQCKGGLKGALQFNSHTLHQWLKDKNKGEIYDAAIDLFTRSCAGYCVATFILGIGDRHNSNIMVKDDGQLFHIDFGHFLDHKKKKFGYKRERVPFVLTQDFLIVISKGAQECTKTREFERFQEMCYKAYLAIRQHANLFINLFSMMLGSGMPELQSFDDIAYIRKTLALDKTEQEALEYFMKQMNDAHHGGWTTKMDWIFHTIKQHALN
Chain of PI3Kα (P27986 whole entry partner): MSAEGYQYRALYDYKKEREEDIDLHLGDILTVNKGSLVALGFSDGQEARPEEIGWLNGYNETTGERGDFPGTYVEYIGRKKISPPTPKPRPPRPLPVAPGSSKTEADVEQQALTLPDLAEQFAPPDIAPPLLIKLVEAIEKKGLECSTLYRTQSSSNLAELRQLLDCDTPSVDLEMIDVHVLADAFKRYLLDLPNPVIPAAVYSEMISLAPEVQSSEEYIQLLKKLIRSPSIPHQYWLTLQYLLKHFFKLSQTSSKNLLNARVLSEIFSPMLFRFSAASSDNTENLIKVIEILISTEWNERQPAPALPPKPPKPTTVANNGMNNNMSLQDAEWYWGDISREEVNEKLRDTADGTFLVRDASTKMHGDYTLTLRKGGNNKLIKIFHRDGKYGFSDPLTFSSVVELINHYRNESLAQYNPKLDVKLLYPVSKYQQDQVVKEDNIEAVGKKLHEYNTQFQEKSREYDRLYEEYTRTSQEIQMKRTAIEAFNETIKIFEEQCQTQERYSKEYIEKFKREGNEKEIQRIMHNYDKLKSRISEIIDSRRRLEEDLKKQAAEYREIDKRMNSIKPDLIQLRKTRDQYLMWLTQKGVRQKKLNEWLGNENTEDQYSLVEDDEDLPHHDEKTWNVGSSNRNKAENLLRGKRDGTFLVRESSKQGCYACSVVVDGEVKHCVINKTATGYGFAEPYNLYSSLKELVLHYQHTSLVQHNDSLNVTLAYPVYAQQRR
Protocol: (§2) Kinase-Glo Luminescent Kinase assay (Promega) was performed to determine the PI3Kα inhibitory activity, while ADP-Glo Luminescent assay (Promega) was performed to identify the inhibitory activity against PI3Kβ, γ, or δ. The kinase buffer was composed of HEPES (50 mM, pH 7.5), MgCl2 (3 mM), EGTA (1 mM), NaCl (100 mM), CHAPS (0.03%) and DTT (2 mM). The serially diluted compound solutions (2.5 mL) were successively added to a 384-well plate. Afterwards, the solution of kinase (2.5 mL) in the kinase buffer and the solution of substrate (5 mL) in the kinase buffer containing PIP2 and ATP were added to each well of the assay plate for starting the reaction. Kinase buffer was added instead to the control well without enzyme. […] After being incubated at room temperature for 1 h, Kinase-Glo reagent (10 mL) was added to each well of the PI3Kα assay plate to quench the reaction. […] The mixture was treated briefly with centrifuge, shaken slowly, and equilibrated for 40 min. Kinase Detection reagent (10 mL) was added to each well. Before reading on a plate reader for luminescence, the resultant mixture was incubated at room temperature for 1 h. After calculating the percent inhibition from the RLU values, the curves were fitted in Graphpad Prism 5 to give IC50 values.

[2] = system: colorectal cancer HCT116 cell line; experiment: Anti-proliferative SRB assay, HCT116; type: cell-based; settings: 72 h exposure; for GI50: Homo sapiens, HCT-116, HCT116 cells; for GI50 HCT116: HCT116 cells
Protocol: as §1

PI3Kδ = PI3Kδ (Homo sapiens, UniProt O00329); experiment: PI3Kδ enzymatic assay (ADP-Glo Luminescent assay); type: biochemical
Chain of PI3Kδ (O00329 whole entry): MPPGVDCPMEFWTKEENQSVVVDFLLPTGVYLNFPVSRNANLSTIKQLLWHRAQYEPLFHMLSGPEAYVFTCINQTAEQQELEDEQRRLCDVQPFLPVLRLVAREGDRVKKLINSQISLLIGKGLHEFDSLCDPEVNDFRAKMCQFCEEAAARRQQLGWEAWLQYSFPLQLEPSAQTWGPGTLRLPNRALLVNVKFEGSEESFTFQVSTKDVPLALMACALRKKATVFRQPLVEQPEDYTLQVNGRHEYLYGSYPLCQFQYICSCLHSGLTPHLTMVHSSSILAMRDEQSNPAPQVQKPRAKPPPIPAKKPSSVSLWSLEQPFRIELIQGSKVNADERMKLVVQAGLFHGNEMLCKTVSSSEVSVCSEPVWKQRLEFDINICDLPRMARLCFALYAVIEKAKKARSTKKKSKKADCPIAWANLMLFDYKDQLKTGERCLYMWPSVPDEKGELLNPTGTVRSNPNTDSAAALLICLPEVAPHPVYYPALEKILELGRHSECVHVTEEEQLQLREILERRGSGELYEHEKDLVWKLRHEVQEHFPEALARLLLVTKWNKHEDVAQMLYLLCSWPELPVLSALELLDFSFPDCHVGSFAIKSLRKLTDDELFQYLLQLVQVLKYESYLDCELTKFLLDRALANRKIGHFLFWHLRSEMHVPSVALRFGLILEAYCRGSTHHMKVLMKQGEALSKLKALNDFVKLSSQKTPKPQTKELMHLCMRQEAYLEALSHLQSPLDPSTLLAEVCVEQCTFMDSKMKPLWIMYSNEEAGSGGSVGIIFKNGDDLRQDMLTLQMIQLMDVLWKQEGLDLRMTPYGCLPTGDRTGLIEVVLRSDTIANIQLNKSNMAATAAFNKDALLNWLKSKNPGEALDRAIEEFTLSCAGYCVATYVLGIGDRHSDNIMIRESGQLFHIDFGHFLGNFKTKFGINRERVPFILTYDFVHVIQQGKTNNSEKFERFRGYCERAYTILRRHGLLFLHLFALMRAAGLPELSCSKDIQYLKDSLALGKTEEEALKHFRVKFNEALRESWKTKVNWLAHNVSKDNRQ
Chain of PI3Kδ (P27986 whole entry partner): as the sequence (P27986 whole entry partner) above
Protocol: as §2

[3] = molecular target: mTOR (1362-end, Millipore) (Homo sapiens, UniProt P42345); experiment: mTOR enzymatic assay (Lance Ultra assay); type: biochemical
Protocol: The kinase buffer was composed of HEPES (50 mM, pH 7.5), MgCl2 (10 mM), EGTA (1 mM), MnCl2 (3 mM), Tween-20 (0.01%) and DTT (2 mM). The solution of substrate in the kinase buffer contained ULight-4E-BP1 peptide (Thr37/46, PE) and ATP. […] After being incubated at room temperature for 1 h, kinase detection buffer (10 mL) containing EDTA and Eu-anti-phospho-4E-BP1 antibody (Thr37/46, PE) was added to each well of the assay plate. Before reading on a plate reader, the mixture needs to be mixed briefly with centrifuge and then allowed to equilibrate for 1 h. After calculating the percent inhibition from Lance signal, the curves were fitted in Graphpad Prism 5 to give IC50 values.

PI3Kβ = PI3Kβ (Homo sapiens, UniProt P42338); experiment: PI3Kβ enzymatic assay (ADP-Glo Luminescent assay); type: biochemical
Chain of PI3Kβ (P42338 whole entry): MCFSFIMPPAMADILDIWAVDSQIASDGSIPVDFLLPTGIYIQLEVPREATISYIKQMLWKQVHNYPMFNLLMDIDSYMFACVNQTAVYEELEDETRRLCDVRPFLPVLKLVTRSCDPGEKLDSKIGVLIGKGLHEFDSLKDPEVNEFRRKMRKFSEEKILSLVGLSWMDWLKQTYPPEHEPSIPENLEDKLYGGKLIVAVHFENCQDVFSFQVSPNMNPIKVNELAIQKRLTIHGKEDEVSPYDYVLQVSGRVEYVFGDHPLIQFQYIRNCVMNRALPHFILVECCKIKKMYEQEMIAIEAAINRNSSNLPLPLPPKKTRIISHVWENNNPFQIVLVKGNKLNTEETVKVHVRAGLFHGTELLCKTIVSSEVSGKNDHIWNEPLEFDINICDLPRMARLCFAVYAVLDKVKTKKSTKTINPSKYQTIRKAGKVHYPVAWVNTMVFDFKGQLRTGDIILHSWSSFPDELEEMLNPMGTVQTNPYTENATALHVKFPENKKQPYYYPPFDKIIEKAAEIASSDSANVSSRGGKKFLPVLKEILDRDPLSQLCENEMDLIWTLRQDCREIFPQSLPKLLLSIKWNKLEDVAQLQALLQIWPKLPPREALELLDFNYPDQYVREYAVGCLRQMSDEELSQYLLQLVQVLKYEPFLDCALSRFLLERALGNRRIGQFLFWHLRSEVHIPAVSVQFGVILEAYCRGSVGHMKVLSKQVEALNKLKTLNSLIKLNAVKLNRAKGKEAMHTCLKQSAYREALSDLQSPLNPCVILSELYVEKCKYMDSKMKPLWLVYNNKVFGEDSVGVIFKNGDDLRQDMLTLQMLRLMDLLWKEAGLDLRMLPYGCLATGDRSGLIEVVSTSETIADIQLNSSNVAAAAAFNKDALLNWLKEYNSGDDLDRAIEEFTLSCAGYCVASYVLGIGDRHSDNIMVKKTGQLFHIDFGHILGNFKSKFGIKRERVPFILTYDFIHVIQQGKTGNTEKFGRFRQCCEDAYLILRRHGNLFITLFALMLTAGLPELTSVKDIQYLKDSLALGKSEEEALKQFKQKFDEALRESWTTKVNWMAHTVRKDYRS
Chain of PI3Kβ (P27986 whole entry partner): as the sequence (P27986 whole entry partner) above
Protocol: as §2

PI3Kγ = PI3Kγ (Homo sapiens, UniProt P48736); experiment: PI3Kγ enzymatic assay (ADP-Glo Luminescent assay); type: biochemical
Chain of PI3Kγ (P48736 whole entry): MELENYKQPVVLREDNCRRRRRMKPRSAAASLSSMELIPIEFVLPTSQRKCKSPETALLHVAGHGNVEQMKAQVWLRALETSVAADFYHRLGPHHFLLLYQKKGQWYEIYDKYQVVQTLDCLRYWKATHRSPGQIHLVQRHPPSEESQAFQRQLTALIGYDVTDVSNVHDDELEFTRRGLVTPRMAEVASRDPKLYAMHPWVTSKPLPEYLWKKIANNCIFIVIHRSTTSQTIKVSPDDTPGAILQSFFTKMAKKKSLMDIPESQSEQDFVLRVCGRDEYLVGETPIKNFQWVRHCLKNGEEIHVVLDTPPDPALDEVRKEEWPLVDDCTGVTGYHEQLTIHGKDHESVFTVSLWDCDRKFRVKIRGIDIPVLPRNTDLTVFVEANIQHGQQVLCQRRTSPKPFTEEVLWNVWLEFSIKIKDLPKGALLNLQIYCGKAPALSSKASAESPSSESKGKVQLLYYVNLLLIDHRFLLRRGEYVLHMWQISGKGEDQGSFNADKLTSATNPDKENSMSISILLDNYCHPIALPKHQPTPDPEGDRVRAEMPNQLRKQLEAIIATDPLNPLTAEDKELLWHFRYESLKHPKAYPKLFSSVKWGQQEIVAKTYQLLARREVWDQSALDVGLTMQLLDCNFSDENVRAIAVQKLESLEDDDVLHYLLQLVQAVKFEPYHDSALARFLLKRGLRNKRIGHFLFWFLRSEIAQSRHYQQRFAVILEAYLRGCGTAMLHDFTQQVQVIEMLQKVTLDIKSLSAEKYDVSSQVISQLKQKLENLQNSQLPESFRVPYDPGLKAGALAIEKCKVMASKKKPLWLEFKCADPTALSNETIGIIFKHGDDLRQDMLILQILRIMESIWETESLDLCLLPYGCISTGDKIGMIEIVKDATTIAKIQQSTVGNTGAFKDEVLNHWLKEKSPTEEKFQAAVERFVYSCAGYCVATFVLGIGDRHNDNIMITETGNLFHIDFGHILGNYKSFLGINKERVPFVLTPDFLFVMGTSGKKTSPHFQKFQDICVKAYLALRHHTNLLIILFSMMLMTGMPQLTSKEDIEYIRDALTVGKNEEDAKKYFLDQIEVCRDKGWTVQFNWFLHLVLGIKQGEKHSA
Protocol: Kinase-Glo Luminescent Kinase assay (Promega) was performed to determine the PI3Kα inhibitory activity, while ADP-Glo Luminescent assay (Promega) was performed to identify the inhibitory activity against PI3Kβ, γ, or δ. The kinase buffer was composed of HEPES (50 mM, pH 7.5), MgCl2 (3 mM), EGTA (1 mM), NaCl (100 mM), CHAPS (0.03%) and DTT (2 mM). The serially diluted compound solutions […] were successively added to a 384-well plate. Afterwards, the solution of kinase […] in the kinase buffer and the solution of substrate (5 mL) in the kinase buffer containing PIP2 and ATP were added to each well of the assay plate for starting the reaction. Kinase buffer was added instead to the control well without enzyme. The final concentrations of PI3Kα, PI3Kβ, PI3Kγ, PI3Kδ, PIP2, and ATP in corresponding kinase reaction mixture were 1.65 nM, 4.8 nM, 7.6 nM, 5.7 nM, […], respectively. After being incubated at room temperature for 1 h, Kinase-Glo reagent […] was added to each well of the PI3Kα assay plate to quench the reaction. Subsequently, the mixture needs to be mixed briefly with centrifuge and shaken slowly for 15 min before being read on a plate reader for luminescence. As for PI3Kβ, γ, or δ, reaction mixture (5 mL) was transferred to a new 384-plate and ADP-Glo reagent (5 mL) was added for stopping the reaction. The mixture was treated briefly with centrifuge, shaken slowly, and equilibrated for 40 min. Kinase Detection reagent […] was added to each well. Before reading on a plate reader for luminescence, the resultant mixture was incubated at room temperature for 1 h. After calculating the percent inhibition from the RLU values, the curves were fitted in Graphpad Prism 5 to give IC50 values.

GI50 ([1]; Homo sapiens, PC-3, 72 h) | IC50 (PI3Kα) | GI50 [2] | IC50 (PI3Kδ) | GI50 [1] | GI50 HCT116 [2] | IC50 [3] | IC50 (PI3Kβ) | IC50 (PI3Kγ) | SMILES
1900 nM | 0.63 nM | 700 nM |  |  |  |  |  |  | COc1ncc(-c2ccc3nccc(/C=C/C(=O)NC(C)(C)C)c3c2)cc1NS(=O)(=O)c1ccc(F)cc1F [8a, (E)-N-(tert-butyl)-3-(6-(5-((2,4-difluorophenyl)sulfonamido)-6-methoxypyridin-3-yl)quinolin-4-yl)acrylamide]
840 nM | 2.03 nM | 1130 nM |  |  |  |  |  |  | COCCNC(=O)/C=C/c1ccnc2ccc(-c3cnc(OC)c(NS(=O)(=O)c4ccc(F)cc4F)c3)cc12 [8b, (E)-3-(6-(5-((2,4-difluorophenyl)sulfonamido)-6-methoxypyridin-3-yl)quinolin-4-yl)-N-(2-methoxyethyl)acrylamide]
< 500 nM | 0.67 nM | 960 nM | 1.3 nM | 450 nM | sub-micromolar | 1.2 nM | 1.2 nM | 0.5 nM | COc1ncc(-c2ccc3nccc(/C=C/C(=O)N(C)CCO)c3c2)cc1NS(=O)(=O)c1ccc(F)cc1F [8c, (E)-3-(6-(5-((2,4-difluorophenyl)sulfonamido)-6-methoxypyridin-3-yl)quinolin-4-yl)-N-(2-hydroxyethyl)-N-methylacrylamide]
1870 nM | 1.03 nM | 1560 nM |  |  |  |  |  |  | COc1ncc(-c2ccc3nccc(/C=C/C(=O)NC4CC4)c3c2)cc1NS(=O)(=O)c1ccc(F)cc1F [8d, (E)-N-cyclopropyl-3-(6-(5-((2,4-difluorophenyl)sulfonamido)-6-methoxypyridin-3-yl)quinolin-4-yl)acrylamide]
1480 nM | 1.43 nM | 1250 nM |  |  |  |  |  |  | COc1ncc(-c2ccc3nccc(/C=C/C(=O)NC4CCC4)c3c2)cc1NS(=O)(=O)c1ccc(F)cc1F [8e, (E)-N-cyclobutyl-3-(6-(5-((2,4-difluorophenyl)sulfonamido)-6-methoxypyridin-3-yl)quinolin-4-yl)acrylamide]
950 nM | 0.62 nM | 1460 nM |  |  |  |  |  |  | COc1ncc(-c2ccc3nccc(/C=C/C(=O)N4CCCC4)c3c2)cc1NS(=O)(=O)c1ccc(F)cc1F [8f, (E)-2,4-difluoro-N-(2-methoxy-5-(4-(3-oxo-3-(pyrrolidin-1-yl)prop-1-en-1-yl)quinolin-6-yl)pyridin-3-yl)benzenesulfonamide]
2500 nM | 0.68 nM | 1300 nM |  |  |  |  |  |  | COc1ncc(-c2ccc3nccc(/C=C/C(=O)N4CCCCC4)c3c2)cc1NS(=O)(=O)c1ccc(F)cc1F [8g, (E)-2,4-difluoro-N-(2-methoxy-5-(4-(3-oxo-3-(piperidin-1-yl)prop-1-en-1-yl)quinolin-6-yl)pyridin-3-yl)benzenesulfonamide]
< 500 nM | 0.53 nM | 510 nM |  | 360 nM | sub-micromolar |  |  |  | COc1ncc(-c2ccc3nccc(/C=C/C(=O)N4CCOCC4)c3c2)cc1NS(=O)(=O)c1ccc(F)cc1F [8h, (E)-2,4-difluoro-N-(2-methoxy-5-(4-(3-morpholino-3-oxoprop-1-en-1-yl)quinolin-6-yl)pyridin-3-yl)benzenesulfonamide]
880 nM | 1.9 nM | 970 nM |  |  |  |  |  |  | COc1ncc(-c2ccc3nccc(/C=C/C(=O)N4CCN(C(C)C)CC4)c3c2)cc1NS(=O)(=O)c1ccc(F)cc1F [8j, (E)-2,4-difluoro-N-(5-(4-(3-(4-isopropylpiperazin-1-yl)-3-oxoprop-1-en-1-yl)quinolin-6-yl)-2-methoxypyridin-3-yl)benzenesulfonamide]
< 500 nM | 0.79 nM | 320 nM |  | 280 nM | sub-micromolar |  |  |  | COc1ncc(-c2ccc3nccc(/C=C/C(=O)N4CCC(O)CC4)c3c2)cc1NS(=O)(=O)c1ccc(F)cc1F [8k, (E)-2,4-difluoro-N-(5-(4-(3-(4-hydroxypiperidin-1-yl)-3-oxoprop-1-en-1-yl)quinolin-6-yl)-2-methoxypyridin-3-yl)benzenesulfonamide]
1310 nM | 0.75 nM | 1560 nM |  |  |  |  |  |  | COc1ncc(-c2ccc3nccc(/C=C/C(=O)N4CCCC(O)C4)c3c2)cc1NS(=O)(=O)c1ccc(F)cc1F (stereo not shown) [8l, (E)-2,4-difluoro-N-(5-(4-(3-(3-hydroxypiperidin-1-yl)-3-oxoprop-1-en-1-yl)quinolin-6-yl)-2-methoxypyridin-3-yl)benzenesulfonamide]
2560 nM | 0.68 nM | 1290 nM |  |  |  |  |  |  | COc1ncc(-c2ccc3nccc(/C=C/C(=O)N4CCC(CO)CC4)c3c2)cc1NS(=O)(=O)c1ccc(F)cc1F [8m, (E)-2,4-difluoro-N-(5-(4-(3-(4-(hydroxymethyl)piperidin-1-yl)-3-oxoprop-1-en-1-yl)quinolin-6-yl)-2-methoxypyridin-3-yl)benzenesulfonamide]
1430 nM | 1.1 nM | 1790 nM |  |  |  |  |  |  | COc1ncc(-c2ccc3nccc(/C=C/C(=O)NCCN4CCOCC4)c3c2)cc1NS(=O)(=O)c1ccc(F)cc1F [8n, (E)-3-(6-(5-((2,4-difluorophenyl)sulfonamido)-6-methoxypyridin-3-yl)quinolin-4-yl)-N-(2-morpholinoethyl)acrylamide]
4830 nM | 1.8 nM | 1520 nM |  |  |  |  |  |  | COc1ncc(-c2ccc3nccc(/C=C/C(=O)Nc4ccccc4)c3c2)cc1NS(=O)(=O)c1ccc(F)cc1F [8o, (E)-3-(6-(5-((2,4-difluorophenyl)sulfonamido)-6-methoxypyridin-3-yl)quinolin-4-yl)-N-phenylacrylamide]
220 nM |  | 180 nM |  |  |  |  |  | 0.44 nM | COc1ncc(-c2ccc3nccc(-c4ccnnc4)c3c2)cc1NS(=O)(=O)c1ccc(F)cc1F [GSK2126458, reference compound]
7160 nM | 14.3 nM | 3670 nM |  |  |  |  |  |  | COc1ncc(-c2ccc3ncccc3c2)cc1NS(=O)(=O)c1ccc(F)cc1F [compound 10, 2,4-Difluoro-N-(2-methoxy-5-(quinolin-6-yl)pyridin-3-yl)benzenesulfonamide]
